The test system of series [1] is ovariectomized (OVX) rats. The series is classed as in vivo, rat. The conditions noted are these: 0.04 μg/kg per dose, subcutaneous, 5 times a week for 6 weeks; third lumbar vertebra. On the procedure: Seven- to nine-week-old W-I female rats (Imamichi Institute for Animal Reproduction) were ovariectomized to remove both ovaries. From the following day, 1α,25-dihydroxyvitamin D3 was subcutaneously administered 5 times a week for 6 weeks in an amount of 0.01 to 0.04 μg/kg per dose. After the last administration, 24-hour urine was sampled from each rat and blood was drawn under ether anesthesia. The rats were then euthanized and their lumbar vertebrae were isolated. The lumbar bone mineral density was measured at the third lumbar vertebra site using a dual X-ray bone mineral densitometer (DCS-600, ALOKA). The blood and urinary calcium levels and the urinary creatinine level were measured with a HITACHI automatic analyzer (Model 7170, Hitachi). Statistical processing was carried out using a software package of Statistic Analysis System (SAS). A comparison between sham operation (sham) and ovariectomy (OVX) groups was made by an unpaired t-test, while a comparison between OVX and drug treatment groups or between sham and drug treatment groups was made by Dunnett's multiple test. A P-value less than 5% was defined as a significant difference.

The subject of series [2] is ovariectomized (OVX) rats. Put plainly: Test in osteoporosis rat model (femur bone mineral density and blood Ca level). It counts as in vivo. The conditions noted are these: oral; for OVX-induced decrease in femur bone mineral density: every day for 8 weeks, vs OVX group, p<0.05, level remained as high as in the sham group; for blood calcium-increasing effect: in amounts where they suppressed the decrease in bone mineral density, 8 weeks, blood drawn 24 hours after last administration. The procedure: The compounds of the present invention were evaluated for their effects on bone mineral density and blood calcium (Ca) level in osteoporosis rat model. The following compounds were tested: 1α,3β-dihydroxy-20(S)-(3-ethyl-3-hydroxypentyl)-9,10-secopregna-5,7,10(19),16-tetraene from Example 11 (hereinafter referred to as “Compound l”) and 1α,3β-dihydroxy-20(S)-(5-ethyl-5-hydroxy-3-heptynyl)-9,10-secopregna-5,7,10(19),16-tetraene from Example 6 (hereinafter referred to as “Compound 2”).
Nine-month-old W-I female rats (Imamichi Institute for Animal Reproduction) were ovariectomized to remove both ovaries. From the following day, Compound 1 or Compound 2 was orally administered every day for 8 weeks. Compound 1 was given in an amount of 0.5 μg/kg, 1 μg/kg or 2 μg/kg per day in two divided doses, while Compound 2 was given in an amount of 0.125 μg/kg, 0.25 μg/kg or 0.5 μg/kg per day in two divided doses. Twenty-four hours after the last administration, blood was drawn from each rat under ether anesthesia. The rats were then euthanized and their femurs were isolated.
The femur bone mineral density was measured using a dual X-ray bone mineral densitometer (DCS-600EX, ALOKA). The blood calcium (Ca) level was measured with a HITACHI automatic analyzer (Model 7170, Hitachi). For comparison purposes, both groups of sham operation (sham) and ovariectomy (OVX; in which rats were ovariectomized only, not followed by administration of test compounds) were similarly assayed for their blood calcium (Ca) level and bone mineral density by isolating their femurs.
Statistical processing was carried out using a software package of Statistic Analysis System (SAS). A comparison between sham operation (sham) and ovariectomy (OVX) groups was made by an unpaired t-test, while a comparison between OVX and drug treatment groups was made by Dunnett's multiple test. A P-value less than 5% was defined as a significant difference.

Turning to `C=C1/C(=C\C=C2/CCC[C@]3(C)[C@@H]([C@H](C)CCCC(C)(C)O)CC[C@@H]23)C[C@@H](O)C[C@@H]1O` [1α,25-dihydroxyvitamin D3], in series [1], the “OVX-induced decrease in lumbar bone mineral density” value is reported as “significantly suppressed”.
As to `C=C1/C(=C\C=C2/CCC[C@]3(C)C([C@@H](C)CCC(O)(CC)CC)=CCC23)C[C@@H](O)C[C@@H]1O` (stereo partly drawn) [Compound 1, 1α,3β-dihydroxy-20(S)-(3-ethyl-3-hydroxypentyl)-9,10-secopregna-5,7,10(19),16-tetraene], the “OVX-induced decrease in femur bone mineral density” value in series [2] (1 μg/kg per day in two divided doses) and in series [2] (2 μg/kg per day in two divided doses) was “significantly suppressed” throughout. Besides, in series [2], the blood calcium-increasing effect entry was “not observed”.
For the molecule `C=C1/C(=C\C=C2/CCC[C@]3(C)C([C@@H](C)CCC#CC(O)(CC)CC)=CCC23)C[C@@H](O)C[C@@H]1O` (stereo partly drawn) [Compound 2, 1α,3β-dihydroxy-20(S)-(5-ethyl-5-hydroxy-3-heptynyl)-9,10-secopregna-5,7,10(19),16-tetraene], the “OVX-induced decrease in femur bone mineral density” value in series [2] (0.125 μg/kg per day in two divided doses) and in series [2] (0.5 μg/kg per day in two divided doses) was “significantly suppressed” in each case. For the same molecule, the blood calcium-increasing effect entry in series [2] is “not observed”.
